ChEMBL document CHEMBL4507265 (2021)

Legend:
[1] = target: Casein kinase I isoform gamma-1 (Homo sapiens) (UniProt Q9HCP0); conditions: Compound concentration 1000.0 nM
[2] = target: Dual serine/threonine and tyrosine protein kinase (Homo sapiens) (UniProt Q6XUX3); conditions: Compound concentration 1000.0 nM
[3] = tested on: eIF-2-alpha kinase GCN2 (Homo sapiens), Q9P2K8 [S808G]; conditions: Compound concentration 1000.0 nM
[4] = target: Ribosomal protein S6 kinase alpha-4 (Homo sapiens) (UniProt O75676); conditions: Compound concentration 1000.0 nM
[5] = target: Mitogen-activated protein kinase kinase kinase kinase 5 (Homo sapiens) (UniProt Q9Y4K4); conditions: Compound concentration 1000.0 nM
[6] = tested on: Tyrosine-protein kinase ABL1 (Homo sapiens), P00519 [Q252H]; conditions: Compound concentration 1000.0 nM
[7] = target: Serine/threonine-protein kinase 4 (Homo sapiens) (UniProt Q13043); conditions: Compound concentration 1000.0 nM
[8] = target: Mu-type opioid receptor (Homo sapiens) (UniProt P35372); conditions: Compound concentration 10.0 uM
[9] = tested on: Tyrosine-protein kinase ABL1 (Homo sapiens), P00519 [Q252H]; conditions: Compound concentration 1000.0 nM; remark: listed apart in the source
[10] = target: Serine/threonine-protein kinase Nek11 (Homo sapiens) (UniProt Q8NG66); conditions: Compound concentration 1000.0 nM
[11] = target: Serine/threonine-protein kinase 3 (Homo sapiens) (UniProt Q13188); conditions: Compound concentration 1000.0 nM
[12] = target: Homeodomain-interacting protein kinase 3 (Homo sapiens) (UniProt Q9H422); conditions: Compound concentration 1000.0 nM
[13] = target: Receptor-interacting serine/threonine-protein kinase 4 (Homo sapiens) (UniProt P57078); conditions: Compound concentration 1000.0 nM
[14] = target: Phosphatidylinositol 4,5-bisphosphate 3-kinase catalytic subunit gamma isoform (Homo sapiens) (UniProt P48736); conditions: Compound concentration 1000.0 nM
[15] = target: Beta-3 adrenergic receptor (Homo sapiens) (UniProt P13945); conditions: Compound concentration 10.0 uM
[16] = target: 5-hydroxytryptamine receptor 1B (Homo sapiens) (UniProt P28222); conditions: Compound concentration 10.0 uM
[17] = target: Ribosomal protein S6 kinase alpha-2 (Homo sapiens) (UniProt Q15349); conditions: Compound concentration 1000.0 nM
[18] = target: Serine/threonine-protein kinase Nek5 (Homo sapiens) (UniProt Q6P3R8); conditions: Compound concentration 1000.0 nM
[19] = target: Tyrosine-protein kinase CSK (Homo sapiens) (UniProt P41240); conditions: Compound concentration 1000.0 nM
[20] = target: Wee1-like protein kinase (Homo sapiens) (UniProt P30291); conditions: Compound concentration 1000.0 nM
[21] = target: Cyclin-dependent kinase 4 (Homo sapiens) (UniProt P11802); conditions: Compound concentration 1000.0 nM
[22] = target: Ribosomal protein S6 kinase alpha-6 (Homo sapiens) (UniProt Q9UK32); conditions: Compound concentration 1000.0 nM
[23] = target: Serine/threonine-protein kinase MARK1 (Homo sapiens) (UniProt Q9P0L2); conditions: Compound concentration 1000.0 nM
[24] = target: Citron Rho-interacting kinase (Homo sapiens) (UniProt O14578); conditions: Compound concentration 1000.0 nM
[25] = target: Death-associated protein kinase 2 (Homo sapiens) (UniProt Q9UIK4); conditions: Compound concentration 1000.0 nM
[26] = target: Serine/threonine-protein kinase PAK 6 (Homo sapiens) (UniProt Q9NQU5); conditions: Compound concentration 1000.0 nM
[27] = target: Protein kinase C iota type (Homo sapiens) (UniProt P41743); conditions: Compound concentration 1000.0 nM
[28] = target: Dual specificity protein kinase CLK1 (Homo sapiens) (UniProt P49759); conditions: Compound concentration 1000.0 nM
[29] = target: Calcium/calmodulin-dependent protein kinase kinase 2 (Homo sapiens) (UniProt Q96RR4); conditions: Compound concentration 1000.0 nM
[30] = target: Cyclin-dependent kinase 15 (Homo sapiens) (UniProt Q96Q40); conditions: Compound concentration 1000.0 nM
[31] = target: Insulin-like growth factor 1 receptor (Homo sapiens) (UniProt P08069); conditions: Compound concentration 1000.0 nM
[32] = target: Cyclin-G-associated kinase (Homo sapiens) (UniProt O14976); conditions: Compound concentration 1000.0 nM
[33] = target: Phosphorylase b kinase regulatory subunit alpha, liver isoform (Homo sapiens) (UniProt P46019); conditions: Compound concentration 1000.0 nM
[34] = target: Phosphatidylinositol 4-phosphate 3-kinase C2 domain-containing subunit beta (Homo sapiens) (UniProt O00750); conditions: Compound concentration 1000.0 nM
[35] = target: Calcium/calmodulin-dependent protein kinase type II subunit delta (Homo sapiens) (UniProt Q13557); conditions: Compound concentration 1000.0 nM
[36] = target: Platelet-derived growth factor receptor alpha (Homo sapiens) (UniProt P16234); conditions: Compound concentration 1000.0 nM
[37] = target: Tyrosine-protein kinase Fgr (Homo sapiens) (UniProt P09769); conditions: Compound concentration 1000.0 nM
[38] = tested on: Proto-oncogene tyrosine-protein kinase receptor Ret (Homo sapiens), P07949 [V804M]; conditions: Compound concentration 1000.0 nM
[39] = target: Tyrosine-protein kinase Fer (Homo sapiens) (UniProt P16591); conditions: Compound concentration 1000.0 nM
[40] = target: STE20-like serine/threonine-protein kinase (Homo sapiens) (UniProt Q9H2G2); conditions: Compound concentration 1000.0 nM
[41] = target: Ribosomal protein S6 kinase alpha-6 (Homo sapiens) (UniProt Q9UK32); conditions: Compound concentration 1000.0 nM; remark: listed apart in the source
[42] = target: Cyclin-dependent kinase 8 (Homo sapiens) (UniProt P49336); conditions: Compound concentration 1000.0 nM
[43] = tested on: Receptor-type tyrosine-protein kinase FLT3 (Homo sapiens), P36888 [R834Q]; conditions: Compound concentration 1000.0 nM
[44] = target: Serine/threonine-protein kinase pim-2 (Homo sapiens) (UniProt Q9P1W9); conditions: Compound concentration 1000.0 nM
Sequence of Serine/threonine-protein kinase pim-2 (Homo sapiens) (Q9P1W9 whole entry, looked up): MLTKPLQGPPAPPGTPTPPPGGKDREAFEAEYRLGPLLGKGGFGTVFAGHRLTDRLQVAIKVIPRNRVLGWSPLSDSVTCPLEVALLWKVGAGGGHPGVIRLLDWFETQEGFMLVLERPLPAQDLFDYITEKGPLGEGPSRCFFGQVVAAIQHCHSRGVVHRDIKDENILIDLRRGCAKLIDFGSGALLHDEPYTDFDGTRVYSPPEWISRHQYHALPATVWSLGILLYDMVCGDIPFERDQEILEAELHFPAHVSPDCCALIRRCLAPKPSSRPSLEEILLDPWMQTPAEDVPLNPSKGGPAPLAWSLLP

Sequence of Ribosomal protein S6 kinase alpha-6 (Homo sapiens) (Q9UK32 whole entry): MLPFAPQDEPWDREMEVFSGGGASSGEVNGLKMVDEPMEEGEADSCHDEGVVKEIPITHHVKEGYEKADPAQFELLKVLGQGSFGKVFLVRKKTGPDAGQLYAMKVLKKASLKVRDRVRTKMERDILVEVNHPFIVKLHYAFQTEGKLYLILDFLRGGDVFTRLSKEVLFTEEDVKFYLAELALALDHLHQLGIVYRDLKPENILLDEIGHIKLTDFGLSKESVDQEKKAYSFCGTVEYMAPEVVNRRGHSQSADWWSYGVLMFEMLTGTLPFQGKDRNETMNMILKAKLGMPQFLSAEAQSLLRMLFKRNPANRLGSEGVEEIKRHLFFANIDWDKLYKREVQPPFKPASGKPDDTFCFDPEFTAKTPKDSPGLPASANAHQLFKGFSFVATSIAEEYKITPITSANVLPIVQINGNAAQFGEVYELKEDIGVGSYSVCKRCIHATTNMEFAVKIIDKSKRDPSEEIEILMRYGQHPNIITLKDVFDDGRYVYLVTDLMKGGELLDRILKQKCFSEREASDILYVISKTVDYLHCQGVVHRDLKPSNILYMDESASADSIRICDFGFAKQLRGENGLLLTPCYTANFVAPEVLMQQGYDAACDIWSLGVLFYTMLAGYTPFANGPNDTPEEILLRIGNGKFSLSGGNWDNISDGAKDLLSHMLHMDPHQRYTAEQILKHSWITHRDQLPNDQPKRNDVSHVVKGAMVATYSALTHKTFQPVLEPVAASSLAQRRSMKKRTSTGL
Sequence of Calcium/calmodulin-dependent protein kinase type II subunit delta (Homo sapiens) (Q13557 whole entry): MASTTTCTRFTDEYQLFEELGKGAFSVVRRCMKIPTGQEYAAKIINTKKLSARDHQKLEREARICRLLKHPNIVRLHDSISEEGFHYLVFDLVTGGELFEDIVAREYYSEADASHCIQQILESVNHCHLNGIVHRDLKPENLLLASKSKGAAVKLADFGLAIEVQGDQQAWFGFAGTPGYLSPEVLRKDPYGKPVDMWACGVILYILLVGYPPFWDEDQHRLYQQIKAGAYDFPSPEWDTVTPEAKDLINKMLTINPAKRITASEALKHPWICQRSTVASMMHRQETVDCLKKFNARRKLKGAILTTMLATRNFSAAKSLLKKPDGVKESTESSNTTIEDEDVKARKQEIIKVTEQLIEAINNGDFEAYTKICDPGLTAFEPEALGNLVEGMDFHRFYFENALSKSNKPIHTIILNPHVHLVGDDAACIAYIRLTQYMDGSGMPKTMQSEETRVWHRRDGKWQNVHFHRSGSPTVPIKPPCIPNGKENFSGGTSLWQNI
Sequence of Serine/threonine-protein kinase PAK 6 (Homo sapiens) (Q9NQU5 whole entry, looked up): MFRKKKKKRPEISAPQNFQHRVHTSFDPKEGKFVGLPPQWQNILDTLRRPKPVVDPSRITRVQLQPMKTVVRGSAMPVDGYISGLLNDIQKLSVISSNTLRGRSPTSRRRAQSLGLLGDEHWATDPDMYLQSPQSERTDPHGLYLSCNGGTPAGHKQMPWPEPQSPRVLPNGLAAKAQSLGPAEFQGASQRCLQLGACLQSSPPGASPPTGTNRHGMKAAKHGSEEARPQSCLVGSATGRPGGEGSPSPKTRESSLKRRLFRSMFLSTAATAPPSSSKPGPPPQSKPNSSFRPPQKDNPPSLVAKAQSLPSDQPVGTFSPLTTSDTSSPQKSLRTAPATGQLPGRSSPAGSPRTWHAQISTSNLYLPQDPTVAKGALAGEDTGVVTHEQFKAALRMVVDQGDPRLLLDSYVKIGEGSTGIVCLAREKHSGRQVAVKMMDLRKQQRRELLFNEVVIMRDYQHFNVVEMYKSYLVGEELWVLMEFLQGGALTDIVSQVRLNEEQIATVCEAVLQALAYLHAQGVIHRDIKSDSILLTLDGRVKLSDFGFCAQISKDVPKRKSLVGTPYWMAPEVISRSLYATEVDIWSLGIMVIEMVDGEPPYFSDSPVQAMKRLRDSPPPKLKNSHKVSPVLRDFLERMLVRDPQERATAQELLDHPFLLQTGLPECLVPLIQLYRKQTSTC
Sequence of Serine/threonine-protein kinase Nek5 (Homo sapiens) (Q6P3R8 whole entry): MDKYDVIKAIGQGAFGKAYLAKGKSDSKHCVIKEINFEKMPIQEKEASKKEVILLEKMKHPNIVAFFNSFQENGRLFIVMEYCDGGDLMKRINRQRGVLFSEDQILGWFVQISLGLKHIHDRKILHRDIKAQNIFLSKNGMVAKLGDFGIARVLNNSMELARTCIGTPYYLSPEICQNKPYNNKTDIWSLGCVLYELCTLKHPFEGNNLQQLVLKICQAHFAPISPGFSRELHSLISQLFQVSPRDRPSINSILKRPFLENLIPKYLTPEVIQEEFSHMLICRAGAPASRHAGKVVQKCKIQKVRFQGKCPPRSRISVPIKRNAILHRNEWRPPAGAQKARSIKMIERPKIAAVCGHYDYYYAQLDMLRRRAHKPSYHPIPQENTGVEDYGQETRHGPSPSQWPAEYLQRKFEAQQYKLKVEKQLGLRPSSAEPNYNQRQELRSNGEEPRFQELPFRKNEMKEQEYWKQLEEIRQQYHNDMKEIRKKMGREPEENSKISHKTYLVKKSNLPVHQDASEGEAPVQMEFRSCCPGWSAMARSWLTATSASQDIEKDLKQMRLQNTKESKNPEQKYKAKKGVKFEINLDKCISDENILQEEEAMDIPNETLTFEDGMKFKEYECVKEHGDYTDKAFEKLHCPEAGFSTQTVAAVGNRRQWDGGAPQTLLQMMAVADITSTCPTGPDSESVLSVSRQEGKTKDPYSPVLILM
Sequence of Casein kinase I isoform gamma-1 (Homo sapiens) (Q9HCP0 whole entry, looked up, canonical isoform): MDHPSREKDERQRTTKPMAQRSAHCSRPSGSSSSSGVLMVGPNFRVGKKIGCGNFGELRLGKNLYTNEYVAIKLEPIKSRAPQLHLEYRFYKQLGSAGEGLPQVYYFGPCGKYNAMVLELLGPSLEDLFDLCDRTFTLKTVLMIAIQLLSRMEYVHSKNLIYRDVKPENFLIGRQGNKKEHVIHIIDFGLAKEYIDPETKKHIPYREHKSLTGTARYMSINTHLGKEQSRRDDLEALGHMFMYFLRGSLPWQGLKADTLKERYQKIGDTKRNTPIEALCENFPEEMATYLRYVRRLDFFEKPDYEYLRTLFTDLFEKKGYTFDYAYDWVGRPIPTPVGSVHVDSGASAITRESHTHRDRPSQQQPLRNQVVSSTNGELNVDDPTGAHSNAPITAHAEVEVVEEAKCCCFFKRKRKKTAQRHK
Sequence of Cyclin-dependent kinase 15 (Homo sapiens) (Q96Q40 whole entry): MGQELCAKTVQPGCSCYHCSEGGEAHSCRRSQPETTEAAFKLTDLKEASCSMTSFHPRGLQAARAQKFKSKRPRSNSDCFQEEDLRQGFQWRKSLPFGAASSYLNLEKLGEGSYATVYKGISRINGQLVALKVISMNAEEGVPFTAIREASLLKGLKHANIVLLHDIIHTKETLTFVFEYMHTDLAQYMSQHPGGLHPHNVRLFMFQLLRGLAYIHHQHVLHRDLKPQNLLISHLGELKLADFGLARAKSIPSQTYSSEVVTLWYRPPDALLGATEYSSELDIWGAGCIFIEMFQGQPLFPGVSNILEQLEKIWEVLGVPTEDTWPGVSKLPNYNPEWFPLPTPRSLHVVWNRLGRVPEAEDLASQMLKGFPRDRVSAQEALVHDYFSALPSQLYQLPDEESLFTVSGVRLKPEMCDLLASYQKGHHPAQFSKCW
Sequence of Tyrosine-protein kinase Fgr (Homo sapiens) (P09769 2-529 limits assumed): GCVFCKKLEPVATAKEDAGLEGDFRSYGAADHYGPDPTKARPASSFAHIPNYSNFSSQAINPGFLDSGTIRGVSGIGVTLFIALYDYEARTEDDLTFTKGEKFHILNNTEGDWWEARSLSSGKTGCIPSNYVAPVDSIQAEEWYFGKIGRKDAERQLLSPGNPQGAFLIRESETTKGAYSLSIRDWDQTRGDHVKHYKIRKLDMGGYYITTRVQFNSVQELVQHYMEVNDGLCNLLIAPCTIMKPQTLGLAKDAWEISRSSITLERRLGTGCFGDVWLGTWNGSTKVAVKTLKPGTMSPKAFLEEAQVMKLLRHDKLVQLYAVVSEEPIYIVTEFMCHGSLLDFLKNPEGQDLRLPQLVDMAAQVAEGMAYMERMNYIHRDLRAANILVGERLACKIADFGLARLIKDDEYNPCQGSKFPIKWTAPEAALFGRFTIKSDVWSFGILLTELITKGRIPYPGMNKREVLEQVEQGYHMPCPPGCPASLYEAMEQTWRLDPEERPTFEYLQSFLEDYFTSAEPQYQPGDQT
Sequence of Death-associated protein kinase 2 (Homo sapiens) (Q9UIK4 whole entry, looked up): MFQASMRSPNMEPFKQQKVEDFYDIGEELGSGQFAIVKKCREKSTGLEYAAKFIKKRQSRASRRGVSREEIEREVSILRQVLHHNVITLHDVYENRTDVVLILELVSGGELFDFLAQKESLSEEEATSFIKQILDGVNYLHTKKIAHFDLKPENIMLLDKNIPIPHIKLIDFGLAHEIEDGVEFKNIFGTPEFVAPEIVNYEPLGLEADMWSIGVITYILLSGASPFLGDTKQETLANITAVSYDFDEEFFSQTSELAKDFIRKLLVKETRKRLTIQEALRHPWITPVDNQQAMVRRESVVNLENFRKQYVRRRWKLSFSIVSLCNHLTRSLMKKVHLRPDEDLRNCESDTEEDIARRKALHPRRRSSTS

NS(=O)(=O)c1cc(NC(=O)C2(c3ccccc3Cl)CC2)ccc1Oc1cccc(Cl)c1 [BAY-207]
inactive: residual activity [1] 90% | residual activity [2] 93% | residual activity [3] 76% | residual activity [4] 89% | residual activity [5] 100% | residual activity [6] 58% | residual activity [7] 73% | inhibition [8] 40.2% | residual activity [9] 71% | residual activity [10] 100% | residual activity [11] 94% | residual activity [12] 100% | residual activity [13] 100% | residual activity [14] 100% | inhibition [15] -5.77% | inhibition [16] 4.81% | residual activity [17] 91% | residual activity [18] 89% | residual activity [19] 100% | residual activity [20] 91% | residual activity [21] 100% | residual activity [22] 96% | residual activity [23] 83% | residual activity [24] 78% | residual activity [25] 100% | residual activity [26] 100% | residual activity [27] 98% | residual activity [28] 59% | residual activity [29] 89% | residual activity [30] 98% | residual activity [31] 80% | residual activity [32] 76% | residual activity [33] 100% | residual activity [34] 100% | residual activity [35] 100% | residual activity [36] 81% | residual activity [37] 54% | residual activity [38] 100% | residual activity [39] 83% | residual activity [40] 79% | residual activity [41] 100% | residual activity [42] 91% | residual activity [43] 100% | residual activity [44] 76%

NS(=O)(=O)c1cc(NC(=O)Cc2ccccc2)ccc1Oc1cccc(Cl)c1 [BAY-1797]
inactive: residual activity [1] 89% | residual activity [2] 83% | residual activity [3] 100% | residual activity [4] 90% | residual activity [5] 72% | residual activity [6] 100% | residual activity [7] 86% | inhibition [8] 19.3% | residual activity [9] 55% | residual activity [10] 100% | residual activity [11] 78% | residual activity [12] 84% | residual activity [13] 83% | residual activity [14] 77% | inhibition [15] 46.3% | inhibition [16] -2.93% | residual activity [17] 100% | residual activity [18] 77% | residual activity [19] 100% | residual activity [20] 75% | residual activity [21] 88% | residual activity [22] 59% | residual activity [23] 100% | residual activity [24] 100% | residual activity [25] 90% | residual activity [26] 100% | residual activity [27] 93% | residual activity [28] 67% | residual activity [29] 91% | residual activity [30] 88% | residual activity [31] 100% | residual activity [32] 99% | residual activity [33] 100% | residual activity [34] 91% | residual activity [35] 97% | residual activity [36] 80% | residual activity [37] 100% | residual activity [38] 100% | residual activity [39] 73% | residual activity [40] 66% | residual activity [41] 84% | residual activity [42] 68% | residual activity [43] 91% | residual activity [44] 100%
